In the experiment the test system is pro-inflammatory patterns typical of IBD. Nature of the experiment: depression of pro-inflammatory patterns typical of IBD. As to conditions: administered alone. The text has this:
According to an aspect of the invention, the casein (ii) contained in the mixture (M), together with (i), (iii) and (iv) (according to any of the described embodiments), is a micellar casein, i.e. in the native form thereof.

On to casein, for which the “pro-inflammatory patterns typical of IBD” value is recorded as “capable of depressing pro-inflammatory patterns typical of IBD”.

These data come from patent US20220218776A1, “COMPOSITION FOR USE IN A METHOD FOR PREVENTION OR TREATMENT OF MALTNUTRITION IN A SUBJECT SUFFERING FROM A CHRONIC INFLAMMATORY BOWEL DISEASES” (SOFAR S.P.A., priority 2019, published 2022).
